What all share (assay type): cell-based
For one assay, the target named is T1, Agam\Orco+Agam\Or39 (Anopheles gambiae, UniProt Q7QCC7).
T1 construct: heteromeric OR co-expressed in Xenopus laevis oocytes; stoichiometry unknown; with Odorant receptor 39
T1 sequence (Q7QCC7 1-478): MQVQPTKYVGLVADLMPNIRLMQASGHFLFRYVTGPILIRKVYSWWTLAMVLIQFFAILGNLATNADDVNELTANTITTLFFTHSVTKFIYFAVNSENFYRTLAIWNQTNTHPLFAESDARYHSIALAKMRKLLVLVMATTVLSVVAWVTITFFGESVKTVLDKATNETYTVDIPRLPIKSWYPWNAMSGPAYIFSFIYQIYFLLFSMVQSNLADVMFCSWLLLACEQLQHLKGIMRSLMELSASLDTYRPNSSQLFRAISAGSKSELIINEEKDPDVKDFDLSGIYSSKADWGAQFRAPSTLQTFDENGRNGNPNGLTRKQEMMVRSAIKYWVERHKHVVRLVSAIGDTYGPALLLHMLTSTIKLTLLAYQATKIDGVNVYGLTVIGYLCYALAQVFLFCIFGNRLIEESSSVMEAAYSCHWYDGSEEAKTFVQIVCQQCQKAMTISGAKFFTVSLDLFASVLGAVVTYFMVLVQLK
The experiment in a line: two-electrode voltage clamp, Xenopus oocytes, single concentration. The following applies: antagonist vs 10 μM 6-methyl-5-hepten-2-one (EC50 concentration); allosteric via Orco; pH 7.4, -70 mV. A general note: Two-electrode voltage clamp is typically applied to oocytes expressing channels or transporters.

Another assay has as its target T2, Agam\Orco+Agam\Or65 (Anopheles gambiae, UniProt Q7QCC7).
T2 construct: heteromeric OR co-expressed in Xenopus laevis oocytes; stoichiometry unknown; with Odorant receptor 65
T2 sequence (Q7QCC7 1-478): T1 sequence (Q7QCC7 1-478)
The description is as above. The following applies: antagonist vs 100 nM eugenol (EC50 concentration); allosteric via Orco; pH 7.4, -70 mV.

In another assay the target is T3, Agam\Orco+Agam\Or31 (Anopheles gambiae, UniProt Q7QCC7).
T3 construct: heteromeric OR co-expressed in Xenopus laevis oocytes; stoichiometry unknown; with Odorant receptor 31
T3 sequence (Q7QCC7 1-478): T1 sequence (Q7QCC7 1-478)
The assay is described as above. The following applies: antagonist vs 70 μM geranyl acetate (EC50 concentration); allosteric via Orco; pH 7.4, -70 mV.

For the next assay, the target named is T4, Dmel\Orco+Dmel\Or35a (Drosophila melanogaster, UniProt Q9VNB5).
T4 construct: heteromeric OR, cRNAs co-expressed in Xenopus laevis oocytes; stoichiometry unknown; with Odorant receptor 35a
T4 sequence (Q9VNB5 1-486): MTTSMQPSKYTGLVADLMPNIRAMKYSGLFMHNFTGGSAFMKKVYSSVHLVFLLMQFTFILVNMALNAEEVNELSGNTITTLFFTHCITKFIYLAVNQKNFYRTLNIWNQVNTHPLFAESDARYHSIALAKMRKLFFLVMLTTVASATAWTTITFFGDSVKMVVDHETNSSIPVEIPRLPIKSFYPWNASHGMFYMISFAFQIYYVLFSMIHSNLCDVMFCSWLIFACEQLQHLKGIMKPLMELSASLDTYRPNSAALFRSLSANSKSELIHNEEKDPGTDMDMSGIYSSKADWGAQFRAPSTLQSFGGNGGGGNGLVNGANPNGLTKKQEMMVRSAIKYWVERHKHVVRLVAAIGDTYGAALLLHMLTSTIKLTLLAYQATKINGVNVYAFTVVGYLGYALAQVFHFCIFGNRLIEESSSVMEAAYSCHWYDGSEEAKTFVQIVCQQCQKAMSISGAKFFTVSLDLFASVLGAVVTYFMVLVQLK
T4 sequence (Q9V3Q2 1-409 partner): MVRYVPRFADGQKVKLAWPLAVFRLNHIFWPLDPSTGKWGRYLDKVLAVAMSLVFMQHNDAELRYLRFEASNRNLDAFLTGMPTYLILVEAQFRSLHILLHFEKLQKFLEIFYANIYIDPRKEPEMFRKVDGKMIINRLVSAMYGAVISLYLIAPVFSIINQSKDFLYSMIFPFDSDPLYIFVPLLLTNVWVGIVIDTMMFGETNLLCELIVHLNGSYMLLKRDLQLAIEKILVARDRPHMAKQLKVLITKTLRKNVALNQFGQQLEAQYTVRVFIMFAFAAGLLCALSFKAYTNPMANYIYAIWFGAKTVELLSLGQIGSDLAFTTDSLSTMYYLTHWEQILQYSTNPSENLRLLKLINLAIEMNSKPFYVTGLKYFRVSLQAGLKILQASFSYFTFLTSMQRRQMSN
In words: two-electrode voltage clamp, Xenopus oocytes, concentration-inhibition.

For a further assay, the target named is T5, Cqui\Orco (Culex quinquefasciatus, UniProt Z9TAD8G4U6).
T5 construct: homomeric Orco channel, expressed alone in Xenopus laevis oocytes
T5 sequence (Z9TAD8G4U6 1-480): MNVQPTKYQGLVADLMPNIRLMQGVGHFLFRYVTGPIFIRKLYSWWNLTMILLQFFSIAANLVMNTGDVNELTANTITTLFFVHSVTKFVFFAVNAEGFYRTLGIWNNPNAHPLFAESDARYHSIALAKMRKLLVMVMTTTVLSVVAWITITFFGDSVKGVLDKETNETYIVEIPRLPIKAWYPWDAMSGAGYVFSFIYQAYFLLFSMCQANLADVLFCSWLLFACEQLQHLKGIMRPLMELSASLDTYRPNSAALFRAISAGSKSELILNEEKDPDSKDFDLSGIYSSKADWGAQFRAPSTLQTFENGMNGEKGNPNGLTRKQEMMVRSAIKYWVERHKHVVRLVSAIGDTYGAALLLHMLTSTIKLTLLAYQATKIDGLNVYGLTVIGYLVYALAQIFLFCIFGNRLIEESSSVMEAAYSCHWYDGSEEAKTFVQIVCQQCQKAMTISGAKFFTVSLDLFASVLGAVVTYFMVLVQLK
In words: two-electrode voltage clamp, Xenopus oocytes, single concentration. The following applies: antagonist vs 30 μM OLC12; homomeric Orco; pH 7.4, -70 mV. An excerpt:
two-electrode voltage clamp, Xenopus oocytes, single concentration on Cqui\Orco | OX1w inhibition of homomeric Orco channels. Oocytes expressing Dmel\Orco, Cqui\Orco or Agam\Orco

The next assay addresses T6, Agam\Orco (Anopheles gambiae, UniProt Q7QCC7).
T6 construct: homomeric Orco channel, expressed alone in Xenopus laevis oocytes
T6 sequence (Q7QCC7 1-478): T1 sequence (Q7QCC7 1-478)
The description is as above. The following applies: antagonist vs 30 μM OLC12; homomeric Orco; pH 7.4, -70 mV. From the text:
two-electrode voltage clamp, Xenopus oocytes, single concentration on Agam\Orco | OX1w inhibition of homomeric Orco channels. Oocytes expressing Dmel\Orco, Cqui\Orco or Agam\Orco

The target of the next assay is T7, Dmel\Orco (Drosophila melanogaster, UniProt Q9VNB5).
T7 construct: homomeric Orco channel, expressed alone in Xenopus laevis oocytes
T7 sequence (Q9VNB5 1-486): T4 sequence (Q9VNB5 1-486)
The assay is described as above. The following applies: antagonist vs 30 μM OLC12; homomeric Orco; pH 7.4, -70 mV. An excerpt:
two-electrode voltage clamp, Xenopus oocytes, single concentration on Dmel\Orco | OX1w inhibition of homomeric Orco channels. Oocytes expressing Dmel\Orco, Cqui\Orco or Agam\Orco

The next assay concerns the target T8, Agam\Orco+Agam\Or28 (Anopheles gambiae, UniProt Q7QCC7).
T8 construct: heteromeric OR co-expressed in Xenopus laevis oocytes; stoichiometry unknown; with Odorant receptor 28
T8 sequence (Q7QCC7 1-478): T1 sequence (Q7QCC7 1-478)
The assay is described as above. The following applies: antagonist vs 40 μM acetophenone (EC50 concentration); allosteric via Orco; pH 7.4, -70 mV.

The target in the next assay is T9, Agam\Orco+Agam\Or15 (Anopheles gambiae, UniProt Q7QCC7).
T9 construct: heteromeric OR co-expressed in Xenopus laevis oocytes; stoichiometry unknown; with Odorant receptor 15
T9 sequence (Q7QCC7 1-478): T1 sequence (Q7QCC7 1-478)
The assay is described as above. The following applies: antagonist vs 18 μM acetophenone (EC50 concentration); allosteric via Orco; pH 7.4, -70 mV.

The target in another assay is T10, Agam\Orco+Agam\Or27 (Anopheles gambiae, UniProt Q7QCC7).
T10 construct: heteromeric OR co-expressed in Xenopus laevis oocytes; stoichiometry unknown; with Odorant receptor 27
T10 sequence (Q7QCC7 1-478): T1 sequence (Q7QCC7 1-478)
Described as above. The following applies: antagonist vs 3 μM L-fenchone (EC50 concentration); allosteric via Orco; pH 7.4, -70 mV.

The target in a further assay is T11, Cqui\Orco+Cqui\Or21 (Culex quinquefasciatus, UniProt Z9TAD8G4U6).
T11 construct: heteromeric OR, cRNAs from pGEMHE co-expressed in Xenopus laevis oocytes; stoichiometry unknown; with Odorant receptor 21
T11 sequence (Z9TAD8G4U6 1-480): T5 sequence (Z9TAD8G4U6 1-480)
In words: two-electrode voltage clamp, Xenopus oocytes, concentration-inhibition. The following applies: antagonist vs 3 μM OLC12 (Orco agonist), -70 mV, pH 7.4, 90 sec pre-application.

As a reminder, the IC50 is the concentration that inhibits the measured activity by half. The low end stands for greater potency, the high end for weaker potency.

For the compound `O=C(Nc1ccc(F)cc1)c1sccc1Cl` [OX1w, 3-chloro-N-(4-fluorophenyl)-2-thiophenecarboxamide], the “% response remaining at 100 μM (normalized to sham)” value on Agam\Orco+Agam\Or39 is recorded as “OX1w was able to inhibit odorant activation of each of the tested ORs”; on Agam\Orco+Agam\Or65 it was 78 ± 5%; on Agam\Orco+Agam\Or31, “OX1w was able to inhibit odorant activation of each of the tested ORs”; on Agam\Orco+Agam\Or28 it was 8 ± 1%; at Agam\Orco+Agam\Or15 it was “OX1w was able to inhibit odorant activation of each of the tested ORs”; at Agam\Orco+Agam\Or27, “OX1w was able to inhibit odorant activation of each of the tested ORs”. Further, the IC50 was 57 ± 5 µM at Dmel\Orco+Dmel\Or35a and 4 ± 1 µM at Cqui\Orco+Cqui\Or21. In addition, the “% response remaining at 100 μM” value at Cqui\Orco is “OX1w inhibition of homomeric Orco channels. Oocytes expressing Dmel\Orco, Cqui\Orco or Agam\Orco”; on Agam\Orco, “OX1w inhibition of homomeric Orco channels. Oocytes expressing Dmel\Orco, Cqui\Orco or Agam\Orco”; at Dmel\Orco, “OX1w inhibition of homomeric Orco channels. Oocytes expressing Dmel\Orco, Cqui\Orco or Agam\Orco”.
As for `O=C(Nc1cc(F)cc(F)c1)c1cccs1` [OX1v, N-(3,5-difluorophenyl)-2-thiophenecarboxamide], the IC50 against Dmel\Orco+Dmel\Or35a was determined as 32 ± 4 µM; on Cqui\Orco+Cqui\Or21, 20 ± 3 µM.
As for `O=C(Nc1ccc(SC(F)F)cc1)c1cccs1` [OX1x, N-(4-((difluoromethyl)thio)phenyl)-2-thiophenecarboxamide], the IC50 at Dmel\Orco+Dmel\Or35a amounted to 32 ± 6 µM; on Cqui\Orco+Cqui\Or21 it was 15 ± 1 µM.
